# Test results taken from PMC6822764, “MitoToxy assay: A novel cell-based method for the assessment of metabolic toxicity in a multiwell plate format using a lactate FRET nanosensor, Laconic” (PLoS ONE, 2019).
# Values joined by “and” are separate entries in the source; they are usually repeats but may differ in a detail not shown here. Equal values may be shown once. “Also recorded” adds a separate entry of the source. Read-outs that look alike come from different tables or passages of the source.
# Legend:
# glutathione (GSH) = tested on: glutathione (GSH); set-up: method as in Li et al., 2014 [50]; conditions: treatment time 6 hours; ref Li et al., 2014 [50]; cited from earlier work
# [1] = tested on: mitochondrial membrane potential (MMP); conditions: cited from earlier work
# [2] = tested on: MDA-MB-231 cells stably expressing the FRET lactate indicator Laconic (MitoTox Reporter); test: MitoToxy assay: toxicity-induced lactate accumulation in MitoTox Reporter cells, 96-well plate reader, with 50 μM pCMBS; type: cell-based
# Description: (§1) MitoTox reporter cell line was cultured in Leibowitz media (Gibco) supplemented with 10% of fetal bovine serum (FBS) at 37°C at atmospheric CO2 levels in a 100 mm petri dish. Once cells reached 100% confluency, they were trypsinized using 5% trypsin (Gibco) and washed in PBS. Viability was determine using trypan blue staining and 10,000 cells were seeded into each well of a 96 well plate. Experiments in 96 well format were performed once cells reached 100% confluency after 6 days, during the incubation media was not replaced. All the plates with signal-to-noise ration below 1.3 for monomeric Teal Fluorescent Protein (mTFP) and Venus channels were discarded. Background signal was determined with KRH buffer without cells. Experiments consisted in washing out the culture media using KRH HEPES buffer containing (mM) 136 NaCl, 3 KCl, 1.25 CaCl2, 1.25 MgCl2, 10 HEPES/Tris and pH 7.2 at 37°C with 300 mOsm. Then 200 μl of KRH HEPES buffer without any carbon sources was added to each well and the baseline was measured (RMIN), then 100 μl of buffer was replaced with mitochondrial toxicant/controls and signal was measured to obtain a stimulated response (RMAX). In experiments were pCMBS was used to block lactate exit, the inhibitor was added simultaneously with the mitochondrial toxicants. Data was collected in triplicated after 5, 10, 30, and 60 minutes of incubation. All the experiments in 96 well plates were performed in an EnVision® multiplate reader (PerkinElmer). Each well was excited at 430 nm and the intensity of mTFP and Venus fluorescence emission were recorded at 485 nm and 528 nm, using a set of filters.
# (§2) Where R(mTFP/Venus) min corresponded to the minimal change of mTFP/Venus ratio during the single-cell experiments. Results in 96 well plates experiments were expressed by the ΔR%. This parameter was obtained from the difference between the RMAX and RMIN from the same well (before-after experiment) as follow: ΔR%=(R(mTFP/Venus)max−R(mTFP/Venus)min/R(mTFP/Venus)min)x100
# [3] = tested on: reactive oxygen species (ROS); set-up: method as in Li et al., 2014 [50]; conditions: treatment time 6 hours; ref Li et al., 2014 [50]; cited from earlier work
# [4] = tested on: clonal MDA-MB-231 cells expressing Laconic; test: Single-cell lactate imaging of MitoTox Reporter cells; type: cell-based; conditions: 32 μM rotenone, 16 μM antimycin, 80 μM oligomycin, 10 μM myxothiazol
# Source text: To generate a cell system with a high signal-to-noise ratio suitable for standard multiplate readers, we developed a clonal cell line with high levels and homogeneous Laconic expression. To do so, we produced a lentivirus particle to infect and transduce Laconic in MDA-MB-231 cells. From pooled cells with diverse levels of Laconic expression we selected high expression clones through FACS. […] We termed this cell line “MitoTox Reporter”. Exposure of these cells to classical mitochondrial poisons produced a robust increase in the fluorescent signal, indicating acute toxicity-induced lactate accumulation. […] With this evidence in hand, cells were tested in a multi-well plate reader.
# Fig 3 Characterization of “MitoTox reporter” cell line. A) Confocal images from FACS selected clonal MDA-MB-231 cells expressing Laconic. Size bars for 20x and 60x represent 100 μm and 10 μm, respectively. Cytosolic lactate accumulation induced by treatment with: B) 32 μM rotenone, C) 16 μM of antimycin, D) 80 μM of oligomycin, and 10 μM myxothiazol. Each trace is the average of ten cells from one representative experiment.
# cell viability = tested on: cell viability; set-up: method as in Li et al., 2014 [50]; conditions: treatment time 6 hours; ref Li et al., 2014 [50]; cited from earlier work
# oxygen consumption = tested on: oxygen consumption; set-up: method as in Hynes et al., 2013 [72]; conditions: treatment time 0.13 hours; ref Hynes et al., 2013 [72]; cited from earlier work
# [5] = tested on: primary culture of astrocytes from the mouse cortex expressing Laconic; test: Single-cell lactate imaging (Laconic) in primary culture of cortical astrocytes; type: cell-based; conditions: 32 μM rotenone, 16 μM antimycin, 5 mM azide, 80 μM oligomycin; buffer without carbon sources
# Description: Animals used for primary cultures were mixed F1 male mice (C57BL/6J × CBA/J), kept in an animal room under SPF conditions at a room temperature of 20 ± 2°C, in a 12/12-h light/dark cycle and with free access to water and food. Mixed cortical cultures of neuronal and glia cells (1 –to 3-day-old neonates) was cultured in Neurobasal medium (Gibco) supplemented with 5 mM glucose and B27. Cells were seeded on petri dishes and superfused with KRH HEPES pH 7.4. The lactate imaging experiments with single-cell resolution were performed using cultured astrocytes at 11–14 days post-dissection. Real time experiments were performed with KRH HEPES bathing solution containing (in mM) 136 NaCl, 3 KCl, 1.25 CaCl2, 1.25 MgCl2, 10 HEPES/Tris and pH 7.2 at 36°C with 300 mOsm, without carbon sources for mitochondrial toxicant experiments and 2 mM glucose and 1 mM lactate for Warburg index determination. Experiments were performed in upright Olympus FV1000 confocal microscope equipped with a 20X water-immersion objective (numerical aperture, 1.0) and a 440 nm solid-state laser.
# To plot the data, we used a ratio between mTFP and Venus channels. This ratio is proportional to lactate levels, since its binding to the sensor produced a decrease in FRET efficiency. This ratio was expressed in two formulas described below: NormalizedΔR=R(mTFP/Venus)/R(mTFP/Venus)min
# With the aim of testing if this observation occurs in general and if azide induced-lactate accumulation can be reproduced using another mitochondrial toxicant with a different molecular target, we performed single-cell experiments exposing primary culture of astrocytes from the mouse cortex expressing Laconic (Fig 1A) to different mitochondria inhibitors that block the ETC at different levels (Fig 1C). To take advantage of the maximal dynamic range of the lactate FRET sensor the baseline measurements were performed using buffer without carbon sources to force start the experiments with lactate levels below 100 μM.
# Each data point is from an average of ten cells from three independent experiments.
# [6] = tested on: extracellular acidification; set-up: method as in Hynes et al., 2013 [72]; conditions: treatment time 0.13 hours; ref Hynes et al., 2013 [72]; cited from earlier work
# HepG2 cells [7] = tested on: HepG2 cells; set-up: method as in Nadanaciva et al., 2012 [55]; conditions: treatment time 0.03 hours; ref Nadanaciva et al., 2012 [55]; cited from earlier work
# HepG2 cells [8] = tested on: HepG2 cells; set-up: method as in Marroquin et al., 2007 [35]; conditions: treatment time 24 hours; approximated IC50 directly from plotted data in the original paper; ref Marroquin et al., 2007 [35]; cited from earlier work
# HepG2 cells [9] = tested on: HepG2 cells; set-up: method as in Nadanaciva et al., 2012 [55]; conditions: treatment time 0.03 hours; ref Nadanaciva et al., 2012 [55]; cited from earlier work; remark: listed apart in the source
# [10] = tested on: MitoTox Reporter cells (MDA-MB-231 expressing Laconic); test: Pilot screening of 13 compounds with MitoTox Reporter cells, multiplate reader; type: cell-based; conditions: for ΔR% (lactate accumulation): average of 4 replicate wells, Fig 9 legend 30 minutes, 37°C; for Concentration at which toxicity / mitochondrial effects were detected in the pilot screening: tested at 1, 5 and 10 μM; for ΔR% variation / lactate accumulation over all concentrations tested: 1, 5, and 10 μM
# Description: as §1, §2
# Multiple comparisons versus control groups (Holm-Sidak method), Overall significance level P < 0,05.
# The capability of the assay to identify previously described toxic drugs was explored through a pilot screening assay. We selected 13 compounds from a variety of therapeutic classes to perform a pilot screening assay using MitoTox Reporter cells and a standard multiplate reader. […] To perform the assays, we prepared master stocks for each compound in 0.2% DMSO. Assays were performed with compounds at final concentrations of 1, 5, and 10 μM and the response of MitoTox Reporter cells were measured at 5, 10, 30, and 60 minutes. […] As a negative control we selected a compound with no reported side-effects.
# HepG2 cells [11] = tested on: HepG2 cells; set-up: method as in PMID 22689143; conditions: cited from earlier work
# [12] = treatment time 6 hours, ref Li et al., 2014 [50], read-out: IC50, MMP
# [13] = dose-response, treatment time 0.5 hours (Fig 8 legend: 10 minutes), 37°C, read-out: IC50 (toxicity-induced lactate accumulation, MitoToxy)
compound,measurement,setting,value
CO/C(=C/C(N)=O)[C@H](C)[C@H](/C=C/c1csc(-c2csc([C@@H](C)/C=C/C=C/C(C)C)n2)n1)OC [myxothiazol],IC50,glutathione (GSH),> 1000 µM
same,IC50,[1]; [12],1.2 µM
same,IC50,[2]; [13],1.2 µM
same,IC50,[3],3.3 µM
same,Intracellular lactate levels in MitoTox Reporter cells (single-cell),[4],"acute, fast, and robust increase of intracellular lactate levels"
same,IC50,cell viability,183 µM
C=C(C)[C@H]1Cc2c(ccc3c2O[C@@H]2COc4cc(OC)c(OC)cc4[C@@H]2C3=O)O1 [rotenone],IC50,oxygen consumption,0.02 µM
same,Cytosolic lactate accumulation in astrocytes,[5],induced an acute cytosolic lactate accumulation
same,IC50,glutathione (GSH),518 µM
same,IC50,[1]; [12],20.3 µM
same,IC50,[6],0.002 µM
same,IC50,"[2]; Homo sapiens, MDA-MB-231, read-out: IC50 (toxicity-induced lactate accumulation)",0.0027 ± 0.00141 µM
same,IC50,"[2]; Homo sapiens, MDA-MB-231, read-out: IC50 (toxicity-induced lactate accumulation, MitoToxy)",0.0025 µM
same,IC50,[3],10.5 µM
same,Intracellular lactate levels in MitoTox Reporter cells (single-cell),[4],"acute, fast, and robust increase of intracellular lactate levels"
same,IC50,cell viability,> 1000 µM
same,IC50,HepG2 cells [7],0.263 µM
same,IC50,HepG2 cells [8],0.05 µM
same,IC50,HepG2 cells [9],0.371 µM
CN(CCOc1ccc(CC2SC(=O)NC2=O)cc1)c1ccccn1 (stereo not shown) [rosiglitazone],ΔR% (lactate accumulation),[10]; 10 μM,over 14%
same,Concentration at which toxicity / mitochondrial effects were detected in the pilot screening,[10],5 µM
same,IC50,[1]; [12],> 1000 µM
same,Effect on OCR and ECAR,HepG2 cells [11]; between 0.13 and 100 μM,no effects were detected
CC1(C)NC(=O)N(c2ccc([N+](=O)[O-])c(C(F)(F)F)c2)C1=O [nilutamide],ΔR% variation / lactate accumulation over all concentrations tested,[10],did not produce ΔR% changes at all the concentrations tested
same,ΔR% variation / lactate accumulation over all concentrations tested,[10]; listed as nilutamine,did not produce any effect
"CC(=O)Oc1ccccc1C(=O)O [aspirin, acetylsalicylic acid]",ΔR% variation / lactate accumulation over all concentrations tested,[10],None of these molecules produced an important ΔR% variation; also recorded: did not induce intra-cellular lactate accumulation
CC(C)(C)c1ccc(C(O)CCCN2CCC(C(O)(c3ccccc3)c3ccccc3)CC2)cc1 (stereo not shown) [terfenadine],ΔR% (lactate accumulation),[10]; 1 μM,without any measurable effects
same,ΔR% (lactate accumulation),[10]; 5 μM,without any measurable effects
same,ΔR% (lactate accumulation),[10]; 10 μM,15.64 ± 1.32%
same,Concentration at which toxicity / mitochondrial effects were detected in the pilot screening,[10],10 µM
same,IC50,"[1]; unit inferred, read-out: IC50, MMP measurements",4.4 µM
CN(C)C(=N)N=C(N)N [metformin],ΔR% variation / lactate accumulation over all concentrations tested,[10],None of these molecules produced an important ΔR% variation; also recorded: did not induce intra-cellular lactate accumulation
COc1cc2nc(N3CCN(C(=O)c4ccco4)CC3)nc(N)c2cc1OC [prazosin],ΔR% variation / lactate accumulation over all concentrations tested,[10],None of these molecules produced an important ΔR% variation
same,IC50,[1]; [12],6.3 µM
CCC(C)(C)C(=O)O[C@H]1C[C@@H](C)C=C2C=C[C@H](C)[C@H](CC[C@@H]3C[C@@H](O)CC(=O)O3)[C@H]21 [simvastatin],ΔR% variation / lactate accumulation over all concentrations tested,[10],None of these molecules produced an important ΔR% variation
same,IC50,[1]; [12],63.2 µM
antimycin,IC50,oxygen consumption,0.039 µM
same,Cytosolic lactate accumulation in astrocytes,[5],induced an acute cytosolic lactate accumulation
same,IC50,glutathione (GSH),228 µM
same,IC50,[1]; [12],2.1 µM
same,IC50,[6],0.074 µM
same,IC50,[2]; [13],0.00024 µM
same,IC50,[3],17.7 µM
same,Intracellular lactate levels in MitoTox Reporter cells (single-cell),[4],"acute, fast, and robust increase of intracellular lactate levels"
same,IC50,cell viability,291 µM
same,IC50,HepG2 cells [7],0.004 µM
same,IC50,HepG2 cells [8],0.006 µM
same,IC50,HepG2 cells [9],0.1 µM
CC(C)C(=O)Nc1ccc([N+](=O)[O-])c(C(F)(F)F)c1 [flutamide],ΔR% (lactate accumulation),[10]; 10 μM,8.71 ± 2.06%
same,Concentration at which toxicity / mitochondrial effects were detected in the pilot screening,[10],10 µM
CC[C@@]1(O)C(=O)OCc2c1cc1n(c2=O)Cc2cc3ccccc3nc2-1 [camptothecin],ΔR% (lactate accumulation),[10]; 1 μM,no change in ΔR% was detected
same,ΔR% (lactate accumulation),[10]; 5 μM,potent effect and 13.52 ± 3.6%
same,ΔR% (lactate accumulation),[10]; 10 μM,49.18 ± 7.4%
same,Cytosolic lactate accumulation (concentration),"[10]; 10 μM, inferred from the reported dynamic range and sensitivity of Laconic",over 10 mM
same,Concentration at which toxicity / mitochondrial effects were detected in the pilot screening,[10],5 µM
same,IC50,[1]; [12],206 µM
CC[C@H]1/C=C/C=C/C[C@@H](C)[C@H](O)[C@@](C)(O)C(=O)[C@@H](C)[C@H](O)[C@@H](C)C(=O)[C@@H](C)[C@H](O)[C@@H](C)/C=C/C(=O)O[C@@H]2[C@H](C)[C@H](CC1)O[C@]1(CC[C@H](C)[C@H](C[C@@H](C)O)O1)[C@H]2C [oligomycin],IC50,oxygen consumption,0.038 µM
same,Cytosolic lactate accumulation in astrocytes,[5],induced an acute cytosolic lactate accumulation
same,IC50,glutathione (GSH),161 µM
same,IC50,[1]; [12],15.6 µM
same,IC50,[6],0.077 µM
same,IC50,"[2]; Homo sapiens, MDA-MB-231, dose-response, treatment time 0.5 hours (Fig 8 legend: 10 minutes), 37°C, read-out: IC50 (toxicity-induced lactate accumulation, MitoToxy)",0.038 µM
same,IC50,[3],> 1000 µM
same,Intracellular lactate levels in MitoTox Reporter cells (single-cell),[4],"acute, fast, and robust increase of intracellular lactate levels"
same,IC50,cell viability,182 µM
same,IC50,HepG2 cells [7],0.92 µM
same,IC50,HepG2 cells [8],0.005 µM
same,IC50,HepG2 cells [9],1.1 µM
CC1(COc2ccc(CC3SC(=O)NC3=O)cc2)CCCCC1 (stereo not shown) [ciglitazone],ΔR% (lactate accumulation),[10]; 10 μM,over 14%
same,Concentration at which toxicity / mitochondrial effects were detected in the pilot screening,[10],5 µM
same,IC50,[1]; [12],136 µM
same,EC50,"HepG2 cells [11]; Seahorse technology, read-out: Concentration required to change the OCR and ECAR by 50%",> 100 µM
COc1cc([C@@H]2c3cc4c(cc3[C@@H](O[C@@H]3O[C@@H]5CO[C@@H](C)O[C@H]5[C@H](O)[C@H]3O)[C@H]3COC(=O)[C@H]23)OCO4)cc(OC)c1O [etoposide],ΔR% variation / lactate accumulation over all concentrations tested,[10],None of these molecules produced an important ΔR% variation; also recorded: did not induce intra-cellular lactate accumulation
